Results reported in patent US20090030015A1, “NOVEL MULTI-CYCLIC COMPOUNDS” (REVOTAR BIOPHARMACEUTICALS AG, priority 2005, published 2009).
pIC50: −log10 of the molar value.

What was measured:
[1] = target: T1, human P-Selectin-IgG-chimera (Homo sapiens, UniProt P16109); assay: Sialyl Lewis X Tyrosine Sulfate Assay (sLex TSA), P-selectin; format: binding; conditions: sLexTSA; for P-Selectin [% inhib.]: in vitro inhibition at 100 μM
T1 sequence (P16109 42-771 limits assumed): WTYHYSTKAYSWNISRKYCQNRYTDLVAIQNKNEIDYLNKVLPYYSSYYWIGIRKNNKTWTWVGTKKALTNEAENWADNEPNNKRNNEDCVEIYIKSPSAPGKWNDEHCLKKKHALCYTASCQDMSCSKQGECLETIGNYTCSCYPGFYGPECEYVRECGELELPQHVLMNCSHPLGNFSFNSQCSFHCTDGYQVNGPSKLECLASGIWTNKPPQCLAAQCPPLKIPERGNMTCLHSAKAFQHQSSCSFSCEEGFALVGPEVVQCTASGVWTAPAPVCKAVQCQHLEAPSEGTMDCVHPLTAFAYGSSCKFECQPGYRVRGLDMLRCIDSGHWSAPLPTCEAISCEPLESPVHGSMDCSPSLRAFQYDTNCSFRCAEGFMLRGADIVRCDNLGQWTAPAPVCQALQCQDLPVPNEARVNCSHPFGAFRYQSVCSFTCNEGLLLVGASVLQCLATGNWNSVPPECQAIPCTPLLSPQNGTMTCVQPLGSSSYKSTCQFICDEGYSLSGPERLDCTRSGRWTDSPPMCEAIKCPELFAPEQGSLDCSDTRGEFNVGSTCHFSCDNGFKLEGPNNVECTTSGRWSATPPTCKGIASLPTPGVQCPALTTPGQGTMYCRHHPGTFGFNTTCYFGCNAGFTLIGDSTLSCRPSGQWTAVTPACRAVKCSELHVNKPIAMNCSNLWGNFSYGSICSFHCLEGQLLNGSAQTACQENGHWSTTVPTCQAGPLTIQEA
Description: (§1) Sialyl Lewis^X Tyrosine Sulfate Assay (sLe^x TSA):
(§2) Compounds of the present invention are assayed on a molecular level for their ability to inhibit the binding of P-, L-, or E-selectin chimeric molecules to sLe^x and tyrosinesulfate residues linked to a polymeric matrix as a PSGL-1 substitute. Selected IC50-values are determined.
(§3) Microtiter plates are coated overnight in carbonate buffer pH9.6 with goat anti human Fc mAB (10 μg/ml). After washing in assay buffer (25 mM 4-(2-hydroxyethyl)-1-piperazineethanesulfonic acid (HEPES), 150 mM NaCl, 1 mM CaCl2 pH7.4) and blocking (3% bovine serum albumin (BSA) in assay buffer) plates are incubated for 2 h at 37° C. with human P-Selectin-IgG-chimera (0.61 nM respectively 150 ng/mL) or human L-Selectin-IgG-chimera (0.61 nM respectively 89 ng/mL) or human E-Selectin-IgG-chimera (0.61 nM respectively 131 ng/mL). 5 μl of sLe^x-tyrosine sulfate polyacrylamide (1 mg/ml) carrying 15% sLe^x, 10% Tyrosine-sulfate and 5% biotin is complexed with 20 μl Streptavidin-Peroxidase solution (1 mg/ml) and 25 μl assay buffer without CaCl2. For use in the assay, the ligand complex is diluted 1:10000 in assay buffer and further diluted 1:1 with varying amounts of compounds in assay buffer incl. 2% DMSO. This mixture is added to the wells precoated with E- or P-selectin. After incubation for 2 h at 37° C., wells are washed for six times with in assay buffer incl. 0.005% Polyoxyethylenesorbitan monolaurate (TWEEN 20), developed for 10-15 min with 20 μl 3,3′,5,5′-tetramethylbenzidine (TMB)/H2O2 substrate solution and stopped with 20 μl 1M H2SO4. Bound sLe^x-Tyrosine sulfate ligand complex is determined by measuring optical density at 450 nm vs. 620 nm in a Fusion alpha-FP reader (sold from Packard Bioscience, Dreieich, Germany).

[2] = target: T2, human L-Selectin-IgG-chimera (Homo sapiens, UniProt P14151); assay: Sialyl Lewis X Tyrosine Sulfate Assay (sLex TSA), L-selectin; format: binding; conditions: sLexTSA; for L-Selectin [% inhib.]: in vitro inhibition at 100 μM
T2 construct: fused on or other part: human IgG Fc part, captured on the plate by goat anti human Fc antibody; a tag, no second protein
T2 sequence (P14151 39-318 limits assumed): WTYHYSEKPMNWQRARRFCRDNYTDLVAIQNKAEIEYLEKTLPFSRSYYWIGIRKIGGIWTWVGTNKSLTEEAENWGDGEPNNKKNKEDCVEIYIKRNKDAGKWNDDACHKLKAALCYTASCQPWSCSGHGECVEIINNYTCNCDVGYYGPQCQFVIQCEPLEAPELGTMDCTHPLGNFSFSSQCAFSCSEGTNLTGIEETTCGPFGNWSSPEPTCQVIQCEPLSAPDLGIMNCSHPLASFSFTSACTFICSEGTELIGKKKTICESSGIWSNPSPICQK
Description: as §1, §2, §3

[3] = system: human E-selectin-IgG chimera; assay: Flow chamber assay, cell adhesion and rolling under flow conditions, E-selectin; format: cell-based; conditions: normalized ratio of %-inhibition of compound divided by %-inhibition of bimosiamose; 125 μM compound; HL-60 cells; flow shear 1 dyne/cm^2
Description: (§4) Flow Chamber Assay/Cell Adhesion and Rolling Under Flow Conditions
(§5) To assess the capability of compounds to inhibit cell binding under dynamic conditions resembling the flow in a blood vessel, flow chamber assays addressing/testing binding of HL-60 cells/various cell lines to P-selectin, L-selectin and E-selectin chimeric molecules are performed.
(§6) Cell attachment under flow conditions is determined using a parallel flow chamber system. A 35 mm polystyrene culture dish is coated for 1 hour at room temperature with coating buffer (50 mM tris-(hydroxymethyl)aminomethane buffer (Tris), 150 mM NaCl, 2 mM CaCl2; pH 7.4) containing human E- or P-selectin-IgG chimera at concentrations of 2.5 μg/ml or 10 μg/ml, respectively. After removal of the coating solution non specific binding sites are blocked for an additional hour with 1% BSA in coating buffer at room temperature. After washing with assay buffer (“Roswell Park Memorial Institute 1640” (RPMI 1640)+10 mM HEPES) the dish is fitted into a parallel plate laminar flow chamber (sold from Glycotech, Rockville, Md.) and mounted on an inverted phase-contrast microscope (sold from Olympus, Hamburg, Germany) equipped with a CCD camera (JVC) that is connected to a PC. Employing a peristaltic pump (sold from Ismatec, Wertheim-Mondfeld, Germany) the re-circulating system is equilibrated with assay buffer containing 125 μM compound or vehicle control (DMSO). Cells (1 million/ml) are added to the chamber and allowed to distribute for 2 minutes at a high flow rate. The flow rate is then decreased resulting in a calculated flow shear of 1 dyne/cm^2. Video sequences of 10 low power fields are digitally recorded after 5 minutes continuous flow. The percentage of inhibition is calculated from the mean number of cells per field that attached to the coated dish surface in the presence versus absence of compound […].

[4] = target: T3, human E-Selectin-IgG-chimera (Homo sapiens, UniProt P16581); assay: Sialyl Lewis X Tyrosine Sulfate Assay (sLex TSA), E-selectin; format: binding; conditions: sLexTSA; for E-Selectin [% inhib.]: in vitro inhibition at 100 μM
T3 construct: fused on or other part: human IgG Fc part, captured on the plate by goat anti human Fc antibody; a tag, no second protein
T3 sequence (P16581 22-175 limits assumed): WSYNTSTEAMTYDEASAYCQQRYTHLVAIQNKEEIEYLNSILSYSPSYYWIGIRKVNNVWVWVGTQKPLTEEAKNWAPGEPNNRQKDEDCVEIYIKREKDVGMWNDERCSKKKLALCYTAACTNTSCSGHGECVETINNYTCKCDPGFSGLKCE
Description: as §1, §2, §3

[5] = system: human P-selectin-IgG chimera; assay: Flow chamber assay, cell adhesion and rolling under flow conditions, P-selectin; format: cell-based; conditions: normalized ratio of %-inhibition of compound divided by %-inhibition of bimosiamose; 125 μM compound; HL-60 cells; flow shear 1 dyne/cm^2
Description: as §4, §5, §6

SMILES	pIC50 [1]	pIC50 [2]	E-Selectin [Ratio] [3]	pIC50 [4]	P-Selectin [Ratio] [5]	P-Selectin [% inhib.] [1]	L-Selectin [% inhib.] [2]	E-Selectin [% inhib.] [4]
COc1ccc(CC(=O)Nc2ccc(-c3cc(C(=O)O)c(C)o3)cc2)c(OC)c1 [Compound 28, 5-{4-[2-(2,4-Dimethoxy-phenyl)-acetylamino]-phenyl}-2-methyl-furan-3-carboxylic acid]	3.62	3.50	0.99 Ratio	3.70	n.s.	–	–	–
COc1cc(CC(=O)Nc2ccc(-c3cc(C(=O)O)c(C)o3)cc2)cc(OC)c1 [Compound 30, 5-{4-[2-(3,5-Dimethoxy-phenyl)-acetylamino]-phenyl}-2-methyl-furan-3-carboxylic acid]	3.87	3.42	1.03 Ratio	< 3.30	n.s.	–	–	–
O=C(CCCNC(=O)c1cc(O)cc(O)c1)NCc1ccc(C(=O)O)cc1 [Compound 39]	–	–	–	–	–	2.9 % inhib.	10.9 % inhib.	24.8 % inhib.
COC(=O)c1ccc(CNC(=O)CCCNC(=O)c2cc(O)cc(O)c2)cc1 [Compound 40]	–	–	–	–	–	28.2 % inhib.	31.1 % inhib.	34.4 % inhib.
Cc1oc(-c2ccc(NC(=O)c3cncc(-c4ccc(O)cc4O)c3)cc2)cc1C(=O)O [Compound 76, 5-(4-{[5-(2,4-Dihydroxy-phenyl)-pyridine-3-carbonyl]-amino}-phenyl)-2-methyl-furan-3-carboxylic acid]	3.63	3.56	0.61 Ratio	3.32	1.26 Ratio	–	–	–
